The CombiSolv-Exp solvation set (Vermeire and Green 2021)

Assay: solvent given as SMILES

CC(C)CCC(C)C
Conditions | solvation free energy, 298 K [kcal/mol]
in Brc1ccccc1 | -4.53
in C1CCCCC1 | -5.02
in C1CCOC1 | -4.85
in C1COCCO1 | -4.04
in C=CCCCC | -4.95
in C=CCCCCCC | -4.85
in C=CCCCCCCCC | -4.75
in CC1COC(=O)O1 | -2.64
in CC#N | -3.31
in CC(=O)N(C)C | -3.54
in CC(=O)O | -3.59
in CC(=O)c1ccccc1 | -3.84
in CC(C)=O | -4.03
in CC(C)CC(C)(C)C | -4.84
in CC(C)CCCC(C)CCCC(C)CCCCC(C)CCCC(C)CCCC(C)C | -4.35
in CC(C)CCO | -4.21
in CC(C)O | -3.99
in CC(C)OC(C)C | -4.85
in CCBr | -4.97
in CCC#N | -3.76
in CCC(C)=O | -4.29
in CCCC#N | -4
in CCCC(=O)OCC | -4.52
in CCCC(C)=O | -4.38
in CCCCC | -5.01
in CCCCCC | -4.97
in CCCCCC(C)=O | -4.4
in CCCCCCC | -4.9
in CCCCCCCC | -4.83
in CCCCCCCCC | -4.79
in CCCCCCCCCC | -4.74
in CCCCCCCCCCCC | -4.63
in CCCCCCCCCCCCCCCC | -4.53
in CCCCCCCCO | -4.21
in CCCCCCOC(C)=O | -4.48
in CCCCO | -4.1
in CCCCOC(C)=O | -4.46
in CCCCOCCCC | -4.81
in CCCO | -4.07
in CCN(CC)CC | -4.89
in CCO | -3.92
in CCOC(C)=O | -4.31
in CCOCC | -4.91
in CCOCCOCCOCC | -4.23
in CCOc1ccccc1 | -4.31
in CN1CCCC1=O | -3.42
in CN(C)C=O | -3.35
in CN(C)P(=O)(N(C)C)N(C)C | -3.84
in CNC=O | -2.97
in CO | -3.55
in COC(C)=O | -4.11
in COCCO | -3.43
in COc1ccccc1 | -4.22
in CS(C)=O | -2.41
in Cc1ccc(C)cc1 | -4.77
in Cc1ccccc1 | -4.76
in Cc1ccccn1 | -4.33
in ClC(Cl)(Cl)Cl | -5.01
in ClC(Cl)Cl | -4.88
in ClCCCl | -4.29
in ClCCl | -4.64
in Clc1ccccc1 | -4.75
in FC(F)(F)C(F)(F)C(F)(F)C(F)(F)C(F)(F)C(F)(F)C(F)(F)C(F)(F)F | -3.22
in FC(F)(F)C(F)(F)C(F)(F)C(F)(F)C(F)(F)C(F)(F)F | -3.3
in Fc1ccccc1 | -4.66
in ICI | -2.71
in N#Cc1ccccc1 | -3.85
in Nc1ccccc1 | -3.11
in O | 2.78
in O=C1CCCCC1 | -4.2
in O=C1CCCO1 | -2.85
in OCc1ccccc1 | -3.33
in S=C=S | -4.94
in c1ccccc1 | -4.76
in c1ccncc1 | -4.06

C=C(C)C1CC=C(C)C(OC(=O)CCC)C1 (stereo unspecified)
Conditions | solvation free energy, 298 K [kcal/mol]
in O | -3.9

Clc1cc(-c2c(Cl)cc(Cl)c(Cl)c2Cl)c(Cl)c(Cl)c1Cl
Conditions | solvation free energy, 298 K [kcal/mol]
in O | -4.61

CC(=O)CCCCC(C)C
Conditions | solvation free energy, 298 K [kcal/mol]
in NC=O | -5.09
in O | -2.84

CC(C)Cl
Conditions | solvation free energy, 298 K [kcal/mol]
in C=CCCCCCCCCCCCCCC | -2.78
in O | -0.23

Cc1cccc(C)c1C
Conditions | solvation free energy, 298 K [kcal/mol]
in O | -1.15

CC(C)CC(C)O (stereo unspecified)
Conditions | solvation free energy, 298 K [kcal/mol]
in CCCCCCCC | -4.63
in CCCCCCCCCC | -4.56

O=C(CC(=O)C(F)(F)F)c1cccs1
Conditions | solvation free energy, 298 K [kcal/mol]
in O | -6.15

CCCOCCOC(=O)c1ccccc1C(=O)OCCOCCC
Conditions | solvation free energy, 298 K [kcal/mol]
in O | -13.2

C=C(C)c1ccccc1
Conditions | solvation free energy, 298 K [kcal/mol]
in CC(C)=O | -6.37
in O | -1.28

CCSSCC
Conditions | solvation free energy, 298 K [kcal/mol]
in O | -1.54

CC(=O)C1COCCOCCOCCOCCOc2ccccc2O1 (stereo unspecified)
Conditions | solvation free energy, 298 K [kcal/mol]
in Cc1cccc(C)c1 | -19.2
in O | -17.8

CN(C)C=O
Conditions | solvation free energy, 298 K [kcal/mol]
in C1CCOC1 | -5.99
in C1COCCO1 | -6.17
in CC(C)=O | -6.43
in CCC(C)=O | -6.41
in CCCCCCCCCCCCCCCC | -3.88
in CCCCCCCCO | -5.95
in CCOC(C)=O | -6.1
in ClC(Cl)(Cl)Cl | -4.73
in O | -7.77
in [2H]O[2H] | -7.47
in c1ccccc1 | -6.19

CCCCCCCCCCCOC(=O)c1ccccc1C(=O)OCCCCCCCCCCC
Conditions | solvation free energy, 298 K [kcal/mol]
in O | -6.08

C=C1CCC2(C(C)C)CC12 (stereo unspecified)
Conditions | solvation free energy, 298 K [kcal/mol]
in O | 0.49

CCCCCCl
Conditions | solvation free energy, 298 K [kcal/mol]
in C1CCOC1 | -5.67
in C1CCOCC1 | -5.23
in C1COCCO1 | -4.94
in C=CCCCCCCCCCCCCCC | -4.46
in CC(C)=O | -4.86
in CCCCCC | -4.76
in CCCCCCCCC=CCCCCCCCC(=O)OCC(COC(=O)CCCCCCCC=CCCCCCCCC)OC(=O)CCCCCCCC=CCCCCCCCC | -4.62
in CCCCCCCCCCCCCCCC | -4.39
in CCCCOCCCC | -4.79
in O | -0.06

Nc1ccc(S(=O)(=O)NC(=O)c2ccccc2)cc1
Conditions | solvation free energy, 298 K [kcal/mol]
in O | -18.1

COc1ccc(C(=O)N(C)C)cc1
Conditions | solvation free energy, 298 K [kcal/mol]
in O | -11
